Assay results as given in US9822414B2, “In vitro method for predicting in vivo genotoxicity of chemical compounds” (priority 2011, dated 2017).
“And” between values parts separate entries of the source, which are not always exact repeats. Identical values can stand only once. Like-named read-outs stand apart in the source and are kept apart here.

Assays:
[1] = tested on: conventional in vitro genotoxicity assays; settings: cited from earlier work
PWWP2B = assay: Gene expression of PWWP2B in HepG2 cells exposed to compound (microarray, log2 treatment:control ratio); assay type: cell-based, human
rodents = settings: cited from earlier work
Salmonella typhimurium = settings: cited from earlier work
HepG2 cell [2] = tested on: HepG2 cell
HepG2 cell [3] = assay: Class prediction of in vivo genotoxicity by the method of the invention (Ames stratification plus three-gene expression in HepG2); settings: for Prediction (class prediction results using the method of the invention): 62 compounds, three replicates, HepG2 24 h; for At least ⅔ genes +?: per single measurement, GTX when at least two out of three genes above reference value
PNMA6A = assay: Gene expression of PNMA6A in HepG2 cells exposed to compound (microarray, log2 treatment:control ratio); assay type: cell-based, human; settings: HepG2 cells; for Log2 treatment: control ratio PNMA6A: 24 h exposure, Ames negative compounds, one line per replicate of triplicate experiments; for PNMA6A: expression versus reference value, single measurement of three
SLC40A1 = assay: Gene expression of SLC40A1 in HepG2 cells exposed to compound (microarray, log2 treatment:control ratio); assay type: cell-based, human; settings: HepG2 cells; for Log2 treatment: control ratio SLC40A1: 24 h exposure, Ames negative compounds, one line per replicate of triplicate experiments; for SLC40A1: expression versus reference value, single measurement of three
C10orf65/HOGA1 = assay: Gene expression of C10orf65/HOGA1 in HepG2 cells exposed to compound (microarray, log2 treatment:control ratio); assay type: cell-based, human; settings: for Log2 treatment: control ratio C10orf65/HOGA1: 24 h exposure, Ames negative compounds, one line per replicate of triplicate experiments; for C10orf65/HOGA1: expression versus reference value, single measurement of three
LOC100505880 = assay: Gene expression of LOC100131914/LOC100505880 in HepG2 cells exposed to compound (microarray, log2 treatment:control ratio); assay type: cell-based, human
[4] = positive when at least one in vivo assay (MN, CA) positive, equivocal considered positive
[5] = standard in vivo genotoxicity designation

SMILES | In vitro GTX [1] | Ames (Salmonella typhimurium) | Prediction (class prediction results using the method of the invention) (HepG2 cell [3]) | Log2 treatment: control ratio PNMA6A (PNMA6A) | Log2 treatment: control ratio SLC40A1 (SLC40A1) | SLC40A1 (SLC40A1) | Log2 treatment: control ratio C10orf65/HOGA1 (C10orf65/HOGA1) | C10orf65/HOGA1 (C10orf65/HOGA1) | Standard (rodents; [5]) | PNMA6A (PNMA6A) | further results
OCCCl [2-Cl] | + |  |  |  |  |  |  |  |  |  | Results in the conventional in vitro genotoxicity assays ([1]; see Table 5): positive results; PWWP2B above or below the reference value (PWWP2B): + (Plus sign indicates a value above the reference value); Standard (in vivo genotoxicity designation) (rodents; in vivo): NGTX
CC(=O)Nc1ccc2c(c1)Cc1ccccc1-2 [2AAF] | + | + | GTX+ |  |  |  |  |  |  |  | Average result over three measurements (HepG2 cell [2]): GTX; Log2 treatment: control ratio PWWP2B (PWWP2B): −0.045 and −0.14 and 0.042; Standard (in vivo genotoxicity designation) (rodents; in vivo): GTX; In vivo GTX (rodents; [4]): +
Oc1cccc2cccnc12 [8HQ] | + | + | GTX+ |  |  |  |  |  |  |  | Average result over three measurements (HepG2 cell [2]): GTX; Log2 treatment: control ratio PWWP2B (PWWP2B): 0.014 and −0.165 and −0.069; Standard (in vivo genotoxicity designation) (rodents; in vivo): NGTX
CC1=CC(=O)[N-]S(=O)(=O)O1.[K+] [ASK] | − | − | NGTX | 0.264 and 0.161 and −0.677 | −0.348 and −0.221 and 0.08 | − (below the reference value) | 0.014 and −0.015 and 0.083 | − (below the reference value) | NGTX |  | 
Nc1ccccc1C(=O)O [AnAc] | + | − | NGTX |  |  | − (below the reference value) |  | − (below the reference value) | NGTX |  | Log2 treatment: control ratio PNMA6A (PNMA6A; listed as AA): 0.167 and −0.628 and 0.562; Log2 treatment: control ratio SLC40A1 (SLC40A1; listed as AA): −0.174 and −0.49 and 0.007; Log2 treatment: control ratio C10orf65/HOGA1 (C10orf65/HOGA1; listed as AA): −0.045 and −0.061 and 0.002
Clc1ccc(C(c2ccc(Cl)cc2)C(Cl)(Cl)Cl)cc1 [DDT] | − | − | NGTX | −0.223 and 0.118 and −0.515 | 0.685 and 0.118 and 0.493 |  | −0.925 and 0.469 and −0.025 |  | NGTX | − (below the reference value) | 
CCN(CC)N=O [DEN] | + |  |  |  |  |  |  |  |  |  | LOC100505880 above or below the reference value (LOC100505880): + (Plus sign indicates a value above the reference value); PWWP2B above or below the reference value (PWWP2B): + (Plus sign indicates a value above the reference value); Standard (in vivo genotoxicity designation) (rodents; in vivo): GTX; In vivo GTX (rodents; [4]): +
CCOP(=S)(OCC)Oc1cc(C)nc(C(C)C)n1 [DZN] | − | − | NGTX | −0.352 and −0.624 and −0.03 | 0.569 and 0.773 and 1.44 | + (above the reference value) | −1.12 and −0.738 and −1.077 | − (below the reference value) | NGTX | − (below the reference value) | 
OC[C@@H](O)[C@@H](O)[C@H](O)[C@H](O)CO [Dman] | − | − | NGTX | −0.035 and 0.459 and 0.01 | 0.005 and −0.155 and −0.035 | − (below the reference value) | 0.022 and −0.159 and 0.023 | − (below the reference value) | NGTX |  | 
C[C@]12CC[C@@H]3c4ccc(O)cc4CC[C@H]3[C@@H]1CC[C@@H]2O [E2, Estradiol] |  |  | NGTX |  |  | − (below the reference value) |  |  |  | − (below the reference value) | 
C=CC(=O)OCC [EtAc, Ethylacrylate] | + | − | GTX | 0.375 and 0.243 and 0.409 | −0.448 and 0.634 and 0.031 |  | 0.391 and 0.429 and 0.624 | + (above the reference value) |  |  | Average result over three measurements (HepG2 cell [3]): GTX; At least ⅔ genes +? (HepG2 cell [3]): GTX; Standard (rodents; in vivo): NGTX
CCc1ccccc1 [EthylB] | + | − | NGTX | 0.313 and 0.434 and 0.392 | −0.23 and −0.141 and 0.295 | − (below the reference value) | −0.18 and 0.116 and −0.084 | − (below the reference value) | NGTX | + (above the reference value) | 
CCC1(c2ccccc2)C(=O)NC(=O)NC1=O [PhB] | + | + |  |  |  |  |  |  |  |  | At least ⅔ genes +? (HepG2 cell [2]): NGTX; Average result over three measurements (HepG2 cell [2]): NGTX; Classification of NGTX compounds by the method of the invention (false positives) (HepG2 cell [2]): misclassification; Prediction (class prediction results using the method of the invention) (HepG2 cell [2]): NGTX; Results in the conventional in vitro genotoxicity assays [1]: positive results; LOC100505880 above or below the reference value (LOC100505880): − (minus sign indicates a value below the reference value); Log2 treatment: control ratio LOC100505880 (LOC100505880): −0.154 and −0.38 and −0.303; Log2 treatment: control ratio PWWP2B (PWWP2B): −0.169 and −0.272 and −0.154; PWWP2B above or below the reference value (PWWP2B): − (minus sign indicates a value below the reference value); In vivo GTX (rodents; in vivo): −; Standard (in vivo genotoxicity designation) (rodents; in vivo): NGTX
CCOc1ccc(NC(C)=O)cc1 [Phen] | + | − | NGTX | −0.023 and 0.218 and −0.237 | −0.646 and 0.127 and −0.048 | − (below the reference value) | 0.043 and 0.056 and 0.034 | − (below the reference value) | NGTX | − (below the reference value) | 
Oc1cccc(O)c1 [RR, Resorcinol] | + |  | GTX |  |  | + (above the reference value) |  | + (above the reference value) | NGTX | + (above the reference value) | Ames (Salmonella typhimurium; Ames results based on NTP data): −; Results in the conventional in vitro genotoxicity assays ([1]; see Table 5): positive results; Average result over three measurements (HepG2 cell [3]): GTX; Classification of NGTX compounds by the method of the invention (false positives) (HepG2 cell [3]; in vivo NGTX compounds): misclassification; At least ⅔ genes +? (HepG2 cell [3]): GTX
CCC[CH2][Sn]([CH2]CCC)([CH2]CCC)[O][Sn]([CH2]CCC)([CH2]CCC)[CH2]CCC [TBTO] | + | − | GTX | 0.909 and 0.663 and 0.456 | 0.604 and 1.649 and 0.208 |  | 0.426 and 0.098 and 0.858 |  | GTX | + (above the reference value) | Average result over three measurements (HepG2 cell [3]): GTX; At least ⅔ genes +? (HepG2 cell [3]): GTX; In vivo GTX (rodents; [4]): +
Clc1cc2c(cc1Cl)Oc1cc(Cl)c(Cl)cc1O2 [TCDD] | − | − | NGTX | −0.041 and 0.26 and 0.072 | 0.169 and −0.21 and 0.104 | − (below the reference value) | −0.107 and 0.056 and 0.151 |  | NGTX |  | 
CCCCCCCCCCCCCC(=O)O[C@@H]1[C@@H](C)[C@@]2(O)[C@@H](C=C(CO)C[C@]3(O)C(=O)C(C)=C[C@@H]23)[C@H]2C(C)(C)[C@]12OC(C)=O [TPA] | − | − | NGTX | −0.493 and −0.137 and −0.26 | −0.327 and 1.338 and 0.199 |  | 0.108 and −0.423 and 0.14 | − (below the reference value) | NGTX | − (below the reference value) | 
Cc1cccc(Nc2cc(Cl)nc(SCC(=O)O)n2)c1C [WY] | − |  |  | 0.059 and −0.515 and 1.157 | −0.312 and −0.393 and −0.643 | − (below the reference value) | −0.061 and −0.158 and −0.053 | − (below the reference value) |  |  | Ames (Salmonella typhimurium; Ames results based on NTP data): −; At least ⅔ genes +? (HepG2 cell [2]): NGTX; Average result over three measurements (HepG2 cell [2]): NGTX; Prediction (class prediction results using the method of the invention) (HepG2 cell [2]): NGTX; In vivo GTX (rodents; in vivo): −; Standard (rodents; in vivo): NGTX
